Measurements published in ChEMBL document CHEMBL1139394, “Piperidine dispiro-1,2,4-trioxane analogues” (Bioorg Med Chem Lett, 2008).

Test system: Plasmodium falciparum
Test: Antimalarial activity against Plasmodium falciparum 3D7 infected human erythrocytes after 24 hrs by [3H]hypoxanthine uptake
Assay type: functional, organism-based

Going from O=S(=O)(c1ccccc1)N1CCC2(CC1)COC1(OO2)C2CC3CC(C2)CC1C3 (stereo not given) to O=S(=O)(c1ccccc1)N1CCC2(CC1)OOC1(O2)C2CC3CC(C2)CC1C3 (stereo not given), the IC50 falls from 710 nM to 6.22 nM (110-fold).

First: O=S(=O)(c1ccccc1)N1CCC2(CC1)OCC1(OO2)C2CC3CC(C2)CC1C3 (stereo not given)
Second: O=S(=O)(c1ccccc1)N1CCC2(CC1)OOC1(OO2)C2CC3CC(C2)CC1C3
The IC50 of the first is higher: > 1000 nM for the first, 10.7 nM for the second.

CCS(=O)(=O)N1CCC2(CC1)COC1(OO2)C2CC3CC(C2)CC1C3 (stereo not given) and CC(=O)N1CCC2(CC1)COC1(OO2)C2CC3CC(C2)CC1C3 (stereo not given) are within 1.5-fold of each other in IC50: 180 nM for the first, 183 nM for the second.

First: C1CC2(CCN1)COC1(OO2)C2CC3CC(C2)CC1C3 (stereo not given)
Second: CC(C)(C)OC(=O)N1CCC2(CC1)COC1(OO2)C2CC3CC(C2)CC1C3 (stereo not given)
The IC50 of the first is 1.6-fold lower: 121 nM for the first, 198 nM for the second.

First: O=C(OCC1c2ccccc2-c2ccccc21)N1CCC2(CC1)COC1(OO2)C2CC3CC(C2)CC1C3 (stereo not given)
Second: CO[C@H]1O[C@@H]2O[C@@]3(C)CC[C@H]4[C@H](C)CC[C@@H]([C@H]1C)[C@@]24OO3 [ARTEMETHER]
The IC50 of the first is 140-fold higher: 174 nM for the first, 1.26 nM for the second.
